Tested on: A549
Test: Cytotoxicity against human A549 cells incubated for 24 hrs by CCK8 assay
Assay type: functional, cell-based
Conditions: A549, 24 h

CCCCC[C@@H]1CCCCCCCCCC(=O)O[C@H]2[C@H](OC[C@H]3O[C@@H](O[C@H]4[C@H](O)[C@@H](CO)O[C@@H](O[C@H]5[C@H](O1)O[C@H](C)[C@@H](O)[C@@H]5O)[C@@H]4O[C@@H]1O[C@@H](C)[C@H](OC(=O)[C@@H](C)CC)[C@@H](O[C@@H]4O[C@H](CO)[C@@H](OC(=O)[C@@H](C)CC)[C@H](O)[C@H]4O)[C@H]1OC(=O)[C@@H](C)CC)[C@H](O)[C@@H](O)[C@@H]3OC(=O)[C@@H](C)[C@H](C)O)O[C@H](CO)[C@@H](OC(=O)[C@@H](C)CC)[C@@H]2O
IC50: 5.2 µM

— ChEMBL document CHEMBL5120870, “Calysepins I-VII, Hexasaccharide Resin Glycosides from Calystegia sepium and Their Cytotoxic Evaluation” (J Nat Prod, 2022)
